Patent US20200323219A1, “BIOLOGICAL FUNGICIDE COMPOSED BY PLANT EXTRACTS” (JH Biotech Inc., priority 2019, published 2020)

How the values were obtained:
Alternaria brassicicola [1] = conditions: cited from earlier work
[2] = system: Magnaporthe grisea (teleomorph: Pyricularia oryzae); conditions: 1000 ppm; cited from earlier work
Acidovorax citrulli = conditions: cited from earlier work
Ralstonia solanacearum = conditions: cited from earlier work
[3] = system: Xanthomonas euvesicatoria; conditions: cited from earlier work
Alternaria brassicicola [4] = experiment: Conidial germination of Alternaria brassicicola on slides in a moist chamber; assay type: cell-based; conditions: 24 hours; for Conidial germination rate (%) in different diluted condition 1000X: diluted 1000 times; for Conidial germination rate (%) in different diluted condition 1500X: diluted 1500 times; for Conidial germination rate (%) in different diluted condition 2000X: diluted 2000 times
Description: The tables differ only in how the gallnut and myrobalan are presented. For Table 1-1, gallnut and myrobalan are presented in vol % as described earlier for the Row 6 procedure while Table 1-2 presents the active ingredients of gallnut and myrobalan as concentration (grams/ml). One drop of 20 μl of pathogen conidia suspension (100 conidia per microliter) was mixed with one drop of 20 μl for each of the eight combinations of gallnut and myrobalan formulations, and at dilutions of 750 times, 1000 times, and 1500 times. Each combination was placed on test slides that were maintained at 100% relative humidity at room temperature. The germination rate of 100 conidia on each slide was calculated visually using a microscope following an incubation period of 24 hours. Tables 2-1 and 2-2 show the same plant extract formulations as in Table 1 but including the addition of a surfactant; specifically, either yucca plant extract (Yucca […]) or sodium lauryl sulfate (SLS). Each was added for testing conidial germinations of Alternaria brassicicola. Dilutions were at 1000 times, 1500 times and 2000 times water. 10 vol % of yucca extract or 5 wt. % of SLS was added to the formulations and then used to test the inhibitory effects on conidial germination on the same fungal pathogen Alternaria brassicicola.

[5] = Table 2-2, with surfactant (gms/ml per 100 ml)

SMILES	inhibition of conidial germination (Alternaria brassicicola [1])	conidial germination [2]	intrusive behavior of the germinated conidia [2]	kill or inhibit the pathogen (Acidovorax citrulli)	kill or inhibit the pathogen (Ralstonia solanacearum)	kill or inhibit the pathogen [3]	Conidial germination rate (%) in different diluted condition 1000X (Alternaria brassicicola [4]; Table 2-1, with surfactant) [%]	Conidial germination rate (%) in different diluted condition 1500X (Alternaria brassicicola [4]; Table 2-1, with surfactant) [%]	Conidial germination rate (%) in different diluted condition 2000X (Alternaria brassicicola [4]; Table 2-1, with surfactant) [%]	Conidial germination rate (%) in different diluted condition 1000X (Alternaria brassicicola [4]; [5]) [%]	Conidial germination rate (%) in different diluted condition 1500X (Alternaria brassicicola [4]; [5]) [%]	Conidial germination rate (%) in different diluted condition 2000X (Alternaria brassicicola [4]; [5]) [%]
O=C(O)c1cc(O)c(O)c(O)c1 [gallic acid, 3,4,5-trihydroxybenzoic acid]	effectively inhibit	stop	stop									
COC(=O)c1cc(O)c(O)c(O)c1 [methyl gallate]		stop	stop	kill or inhibit	kill or inhibit	kill or inhibit						
CCCCCCCCCCCCOS(=O)(=O)[O-].[Na+] [sodium lauryl sulfate]							55	90	94	55	90	94
